Test results published in PMC4900628, “Critical Evaluation of P2X7 Receptor Antagonists in Selected Seizure Models” (PLoS ONE, 2016).
Like-named read-outs stand apart in the source and are kept apart here.

Assays:
[1] = tested on: PTZ-induced generalized clonic seizures; assay: Pentylenetetrazol seizure threshold test (PTZ-T); type: in vivo; conditions: for Cases of death (within 30 min) / Latency to the first gen. Clonus (% control) / Latency to the first gen. Clonus / Latency to the first gen. clonus (% of control) / latency to the onset of the first clonic seizures at higher doses: mice; for Cases of death (within 30 min): n=12; for Latency to the first gen. Clonus: mean ± SEM; for latency to the onset of the first clonic seizures at higher doses: compounds alone, PTZ 87 mg/kg s.c.
Experimental: Unrestrained mice, placed in separate full-view Plexiglas cages, were injected with the convulsant drug PTZ, a non-competitive GABAA receptor antagonist, at a dose of 87 mg/kg s.c. in the neck and the appearance of the first generalized clonus (repeated clonic seizures of the fore- and hindlimbs lasting ≥3 s with an accompanying loss of righting reflex) was recorded during individual observation for 30 min (see [69]). […] Group sizes of 12 mice were used in all experiments. Control groups, which received vehicle, were tested together with the compound-treated group on the same experimental day. The number of animals in the group with a generalized clonic seizure and the latency time to its onset were analysed for statistical significance. In the absence of seizures within 30 min, the latency was taken as 1800 s.
For the seizure tests (MES-T, PTZ-T, PTZ-kindling), BBG and TIIAS was dissolved in polyethylene glycol (PEG BioUltra, 400, Sigma-Aldrich), diluted to 20% with aqua (aqua ad iniectabilia, Braun, Melsungen, Germany). AFC was solubilized in ≥97% N,N-dimethylacetamide (DMA, Sigma-Aldrich), vortexed and diluted with 45% 2-hydroxypropyl-ß-cyclodextrin (ß-CD, Sigma-Aldrich) (final ratio of the vehicle 1:9). JNJ-47965567 was solubilized in two equivalents of 1N HCl, vortexed and sonicated (until the compound was mostly diluted) and then 30% of sulfobutylether-ß-cyclodextrin (SBE-ß-CD, Toronto Res. Chemicals, Toronto, Canada) was slowly added. The pH was adjusted with 1N NaOH (similar amount of NaOH as HCl), all with continuous stirring. PTZ was dissolved in 0.9% NaCl-solution, carbamazepine, ethosuximide and Ca-valproate were administered in a 2% (w/v) suspension of hydroxyethylcellulose. The drug solutions or suspensions were prepared immediately before use; all doses refer to the salts. Animals in the control group received equivalent volumes of the vehicle (in mice always 10 ml/kg, in rats 1 ml/kg [JNJ], 3 ml/kg [AFC] or 4 ml/kg [BBG, TIIAS], depending on the solubility of the different compounds). Doses and peak time effects were selected on the basis of effective doses from corresponding in vivo studies in the literature: BBG (e.g.), tanshinone IIA (e.g.) and from manufacturer’s experimental data: AFC, JNJ (see, [80]).
Data were analysed using SigmaPlot (vers. 12.0, Systat Software, Erkrath, Germany) and SPSS (IBM SPSS Statistics 20, Ehningen, Germany), respectively. Results are expressed as mean ± SEM. In the fluorometric Ca^2+ assays, concentration-response curves were fitted by using a 4-parameter logistic function (Hill slope, Emin, Emax, IC50). […] In the MES-T, the current intensity inducing tonic hindlimb extensions in 50% of the mice (CC50 values with confidence limits for 95% probability) and the statistical significance was calculated using Probit analysis (SPSS). In the case of multiple comparisons between different groups α-correction was performed so that only differences with a P value of < 0.01 were considered significant. In the PTZ-T, the number of animals in the group with clonic seizures and the latency time were analysed using Fisher's exact probability test and the Mann-Whitney rank sum test, respectively. For multiple comparisons of the latency time a one-way ANOVA with the Holm-Sidak post hoc test was used. The influence of AFC on the plasma and brain concentrations of the antiepileptic drugs was statistical compared using the same procedure. In the PTZ-kindling model, the mean seizure stage within a group was calculated in relation to the number of PTZ-injections. Statistical comparison between vehicle- and compound-treated groups in this model was performed with two-way repeated measures ANOVA, followed by the Holm-Sidak post hoc test. The mean number of PTZ-injections needed to produce the first generalized seizure (≥ stage 3 convulsions) in the vehicle- versus compound-treated groups was statistically compared using a Mann-Whitney rank sum test.

[2] = Plasma and brain concentration in rats (after PTZ-kindling); type: in vivo
Experimental: One day after kindling procedure, selected rats (groups with n ≥ 5) were again pre-treated with the compounds of interest and sacrificed at the assumed peak times of brain concentration by CO2 inhalation. Blood was collected intracardially by heart centesis via glass pipettes supplemented with heparin-Na (ratiopharm, Ulm, Germany; 10μl of 5.000 I.U./ml) and separated by centrifuging (1500xg for 10 min) at 6–8°C. The plasma was stored at -20°C in plastic tubes. After blood sample collection, rats were decapitated and brains were quickly dissected. After removing the adherent blood by tissue paper and cutting off the cerebellum, the samples were fresh frozen using liquid nitrogen. Brain tissue was stored at -80°C and delivered to the different laboratories on dry ice. For mice (groups with n = 6), a similar procedure was used for the preparation of plasma and brain samples. In experiments in which AFC was co-administered with carbamazepine or ethosuximide, drug concentrations in plasma and brain were estimated to detect potential pharmacokinetic interactions.
Samples from experiments with AFC were analysed at the Lead Discovery Center (Dortmund, Germany). Briefly, AFC, carbamazepine and ethosuximide were extracted from plasma and homogenized brain by protein precipitation using acetonitrile. Resulting filtrates were analysed by liquid chromatography tandem-mass spectrometry (LC-MS/MS) using a Prominence UFLC system (Shimadzu, Duisburg, Germany) coupled to a QTrap 5500 instrument (ABSciex, Darmstadt, Germany). The compounds were separated on a Zorbax Eclipse Plus C18 column (Agilent Technologies, Santa Clara, CA, USA) with an acetonitrile/water gradient containing 0.1% formic acid as solvent. Chromatographic conditions and mass spectrometer parameters were optimized for each analyte. Plasma and brain concentrations of the compounds were calculated by means of a standard curve.
Plasma and brain samples from experiments with JNJ-47965567 were quantified at the Neuroscience Therapeutic Area, Janssen Research & Development (San Diego, CA, USA) using an API 4000 MS/MS system (Applied Biosystems, Concord, ON, Canada) interfaced with an Agilent 1100 Series HPLC (Agilent Technologies). To measure the percentage of P2X7R brain occupancy of JNJ-47965567, ex vivo receptor binding autography was performed as recently described. Briefly, 20 μm-thick hippocampal slices were prepared and P2X7R radioligand binding was determined at room temperature with 10 nM [^3H] JNJ-54232334 (Janssen) in 50 mM Tris-HCl incubation buffer containing 0.1% bovine serum albumin. The non-specific binding was measured using adjacent sections incubated in the additional presence of 100 μM A-740003 (Tocris Bioscience, Bristol UK). Sections were incubated for 1 min, washed in ice-cold incubation buffer (4 times, 5 min each), followed by two dips in deionized water and rapidly dry under a stream of cold air before acquisition. Quantitative analysis was performed using the Tracer ß-Imager with M3 Vision software (Biospace Lab, Paris, France). Ex vivo receptor labelling was expressed as the percentage of receptor labelling in corresponding brain areas of vehicle-treated control animals.

[3] = series JNJ-47965567 15 mg/kg and/or ethosuximide 100 mg/kg i.p. 30 min before PTZ 87 mg/kg s.c.
[4] = series JNJ-47965567 30 mg/kg and/or ethosuximide 100 mg/kg i.p. 30 min before PTZ 87 mg/kg s.c.
[5] = series AFC-5128 25 mg/kg and/or ethosuximide 100 mg/kg, all i.p. 30 min before PTZ 87 mg/kg s.c.
[6] = series AFC-5128 50 mg/kg and/or ethosuximide 100 mg/kg, all i.p. 30 min before PTZ 87 mg/kg s.c.
[7] = series JNJ-47965567 15 mg/kg and/or ethosuximide 100 mg/kg i.p. 30 min before PTZ, control 4.74 ± 0.64 min
[8] = series JNJ-47965567 15 mg/kg and/or ethosuximide 100 mg/kg, all i.p. 30 min before PTZ 87 mg/kg s.c.
[9] = series JNJ-47965567 30 mg/kg and/or ethosuximide 100 mg/kg i.p. 30 min before PTZ, control 6.14 ± 1.34 min
[10] = series JNJ-47965567 30 mg/kg and/or ethosuximide 100 mg/kg, all i.p. 30 min before PTZ 87 mg/kg s.c.
[11] = 15 mg/kg i.p. 30 min before PTZ 87 mg/kg s.c.
[12] = 30 mg/kg i.p. 30 min before PTZ 87 mg/kg s.c.
[13] = 50 mg/kg i.p. 45 min before PTZ 87 mg/kg s.c.

CCC1(C)CC(=O)NC1=O (stereo not shown) [Ethosuximide, ethosuximide]
Cases of death (within 30 min) ([1]; series AFC-5128 25 mg/kg and/or ethosuximide 100 mg/kg i.p. 30 min before PTZ 87 mg/kg s.c.): 1 | Cases of death (within 30 min) ([1]; series AFC-5128 50 mg/kg and/or ethosuximide 100 mg/kg i.p. 30 min before PTZ 87 mg/kg s.c.): 1 | Cases of death (within 30 min) [1, 3]: 0 | Cases of death (within 30 min) [1, 4]: 1 | Latency to the first gen. Clonus (% control) ([1]; series AFC-5128 25 mg/kg and/or ethosuximide 100 mg/kg i.p. 30 min before PTZ, control 4.53 ± 0.56 min): 312.6 ± 65.8% | Latency to the first gen. Clonus [1, 5]: 14.16 ± 2.98 min | Latency to the first gen. Clonus (% control) ([1]; series AFC-5128 50 mg/kg and/or ethosuximide 100 mg/kg i.p. 30 min before PTZ, control 10.83 ± 2.67 min): 200.6 ± 27.0% | Latency to the first gen. Clonus [1, 6]: 21.72 ± 3.03 min | Latency to the first gen. Clonus (% control) [1, 7]: 244.3 ± 75.3% | Latency to the first gen. Clonus [1, 8]: 11.58 ± 3.57 min | Latency to the first gen. Clonus (% control) [1, 9]: 209.0 ± 51.1% | Latency to the first gen. Clonus [1, 10]: 12.83 ± 3.14 min | # of mice/ with seizures [1, 5]: 12/8^+ | # of mice/ with seizures [1, 6]: 12/7^+ | # of mice/ with seizures [1, 8]: 12/8^+ | # of mice/ with seizures [1, 10]: 12/8^+

O=C(NCC1(N2CCN(c3ccccc3)CC2)CCOCC1)c1cccnc1Sc1ccccc1 [JNJ-47965567, N-[[4-(4-phenyl-piperazin-1-yl)tetrahydro-2H-pyran-4-yl]-methyl]-2-(phenyl-thio) nicotinamide]
# of mice/ with seizure [1, 11]: 12/12 | # of mice/ with seizure [1, 12]: 12/10 | Cases of death (within 30 min) [1, 11]: 2 | Cases of death (within 30 min) [1, 12]: 1 | Cases of death (within 30 min) [1, 3]: 3 | Cases of death (within 30 min) [1, 4]: 1 | Latency to the first gen. Clonus [1, 11]: 7.31 ± 2.19 min | Latency to the first gen. clonus (% of control) ([1]; 15 mg/kg i.p. 30 min before PTZ 87 mg/kg s.c., vehicle 6.94 ± 1.31 min): 105.3 ± 31.6% | Latency to the first gen. Clonus [1, 12]: 13.66 ± 2.94 min | Latency to the first gen. clonus (% of control) ([1]; 30 mg/kg i.p. 30 min before PTZ 87 mg/kg s.c., vehicle 7.13 ± 1.49 min): 191.6 ± 41.2% | latency to the onset of the first clonic seizures at higher doses [1]: tended to increase the latency | Latency to the first gen. Clonus (% control) [1, 7]: 109.4 ± 25.1% | Latency to the first gen. Clonus [1, 8]: 5.19 ± 1.19 min | Latency to the first gen. Clonus (% control) [1, 9]: 153.4 ± 47.1% | Latency to the first gen. Clonus [1, 10]: 9.42 ± 2.89 min | # of mice/ with seizures [1, 8]: 12/12 | # of mice/ with seizures [1, 10]: 12/10 | mean brain concentration ([2]; 15 mg/kg s.c., 30 min before, n = 5, listed as JNJ, 15 mg/kg): 5000 ± 1100 nM | concentration at 30 min ([2]; rat, brain, sc, 15 mg/kg s.c., 30 min before, n = 5, read-out: mean brain concentration): 5000 nM | Kp at 0.5 h ([2]; rat, brain, sc, 15 mg/kg, 15 mg/kg s.c., 30 min, read-out: brain to plasma ratio): 1.2 | concentration at 30 min ([2]; rat, plasma, sc, 15 mg/kg s.c., 30 min before, n = 5, read-out: mean blood plasma concentration): 4000 ± 1000 nM

CCOc1ccc(Nc2ccc(/C(=C3C=C/C(=[N+](/CC)Cc4cccc(S(=O)(=O)[O-])c4)C=C/3C)c3ccc(N(CC)Cc4cccc(S(=O)(=O)O)c4)cc3C)cc2)cc1 [Brilliant Blue G]
# of mice/ with seizure [1, 13]: 12/10 | Cases of death (within 30 min) [1, 13]: 2 | Latency to the first gen. Clonus ([1]; 50 mg/kg i.p. 45 min before PTZ 87 mg/kg s.c., P < 0.05): 13.91 ± 2.38 min | Latency to the first gen. clonus (% of control) ([1]; 50 mg/kg i.p. 45 min before PTZ 87 mg/kg s.c., vehicle 6.77 ± 2.23 min): 205.5 ± 35.2% | latency to the onset of the first clonic seizures at higher doses [1]: tended to increase the latency | mean brain concentration ([2]; 50 mg/kg i.p., 45 min before, n = 7): 20 ± 2 nM | concentration at 45 min ([2]; rat, brain, ip, 50 mg/kg i.p., 45 min after injection, read-out: rat brain concentration): 20 nM | Kp at 0.75 h ([2]; rat, brain, ip, 50 mg/kg, 50 mg/kg i.p., 45 min, read-out: brain to plasma ratio): 0.01 | concentration at 45 min ([2]; rat, plasma, ip, 50 mg/kg i.p., 45 min before, n = 7, read-out: mean blood plasma concentration): 1600 ± 300 nM
